Here are results for 21 compounds from ChEMBL document CHEMBL3046327, “Nicotinic acid hydrazones: a novel anticonvulsant pharmacophore” (Med Chem Res, 2011).

Structures are written as SMILES. The source made the active and inactive calls. The rule behind the calls is not given here. Bounds are passed on as bounds.

The test system of data set [1] is Mus musculus. In words: Neurotoxicity in Mus musculus C57B/6 (mouse) assessed motor impairment at 300 mg/kg, ip after 0.5 hr by rotarod test. Format: toxicity, organism-based. More on the design: dose 300 mg/kg, route intraperitoneal. The note with it: in vivo.
Data set [2] concerns Mus musculus. Description: Anticonvulsant activity in Mus musculus C57B/6 (mouse) assessed protection against maximal electroshock-induced seizures at 300 mg/kg, ip after 4 hr. The class given is functional, organism-based. Set-up: dose 300 mg/kg. (In general: In the maximal electroshock model the usual endpoint is tonic extension of the hind limbs.)
Data set [3] concerns Mus musculus. Description: Neurotoxicity in Mus musculus C57B/6 (mouse) assessed motor impairment at 300 mg/kg, ip after 4 hr by rotarod test. The class given is toxicity, organism-based. More on the design: dose 300 mg/kg, route intraperitoneal. The conditions noted are these: in vivo. In general terms: Falling from the rotarod earlier than controls is read as motor impairment.

Data set [4] concerns Mus musculus. Description: Anticonvulsant activity in Mus musculus C57B/6 (mouse) assessed protection against subcutaneous pentylenetetrazole-induced seizures at 300 mg/kg, ip after 0.5 hr. Format: functional, organism-based. Set-up: dose 300 mg/kg.
Data set [5] concerns Mus musculus. In words: Anticonvulsant activity in Mus musculus C57B/6 (mouse) assessed protection against maximal electroshock-induced seizures at 300 mg/kg, ip after 0.5 hr. Set-up: dose 300 mg/kg. Format: functional, organism-based.
Data set [6] relates to Mus musculus. In words: Anticonvulsant activity in Mus musculus C57B/6 (mouse) assessed protection against subcutaneous pentylenetetrazole-induced seizures at 300 mg/kg, ip after 4 hr. Format: functional, organism-based. Set-up: dose 300 mg/kg.
For data set [7], the species on record is Mus musculus. In words: Protective index, ratio of TD50 for Mus musculus C57B/6 (mouse) to ED50 for Mus musculus C57B/6 (mouse) assessed protection against 6 Hz psychomotor seizure by minimal clonic seizure test. Format: functional.
Data set [8] concerns Mus musculus. In words: Anticonvulsant activity in ip dosed Mus musculus C57B/6 (mouse) assessed protection against 6 Hz psychomotor seizure by minimal clonic seizure test. The class given is functional. The conditions noted are these: C57B/6, ip.
Data set [9] concerns Mus musculus. Description: Anticonvulsant activity in ip dosed Mus musculus C57B/6 (mouse) assessed protection against maximal electroshock-induced seizures after 0.5 hr. Format: functional. The note with it: C57B/6, ip, read-out: MED.
The nature of data set [10]: Neurotoxicity in ip dosed Mus musculus C57B/6 (mouse) assessed motor impairment by rotarod test. The class given is toxicity, organism-based. The note with it: in vivo.
For data set [11], the system named is Mus musculus. Description: Anticonvulsant activity in ip dosed Mus musculus C57B/6 (mouse) assessed protection against 6 Hz psychomotor seizure after 0.5 hr by minimal clonic seizure test. Format: functional. The note with it: C57B/6, ip, read-out: MED.
Data set [12] relates to Mus musculus. In words: Neurotoxicity in ip dosed Mus musculus C57B/6 (mouse) assessed motor impairment after 4 hr by rotarod test. Format: toxicity, organism-based. The note with it: in vivo.
Data set [13] deals with Mus musculus. In words: Anticonvulsant activity in ip dosed Mus musculus C57B/6 (mouse) assessed protection against maximal electroshock-induced seizures after 4 hr. The class given is functional. The note with it: C57B/6, ip, read-out: MED.
Data set [14] relates to Mus musculus. Description: Neurotoxicity in ip dosed Mus musculus C57B/6 (mouse) assessed motor impairment after 0.5 hr by rotarod test. Format: toxicity, organism-based. The note with it: in vivo.
Data set [15] relates to Mus musculus. In words: Anticonvulsant activity in ip dosed Mus musculus C57B/6 (mouse) assessed protection against 6 Hz psychomotor seizure after 0.25 hr by minimal clonic seizure test. The class given is functional. The conditions noted are these: C57B/6, ip, read-out: MED.
The species entered for data set [16] is Rattus norvegicus. In words: Protective index, ratio of TD50 for Rattus norvegicus Sprague-Dawley (rat) to ED50 for Rattus norvegicus Sprague-Dawley (rat) assessed protection against 6 Hz psychomotor seizure by minimal clonic seizure test. The class given is functional.
A short description of data set [17]: Neurotoxicity in po dosed Rattus norvegicus Sprague-Dawley (rat) assessed motor impairment by rotarod test. The class given is toxicity, organism-based. The conditions noted are these: in vivo.
Data set [18] concerns Rattus norvegicus. Description: Anticonvulsant activity in po dosed Rattus norvegicus Sprague-Dawley (rat) assessed protection against 6 Hz psychomotor seizure by minimal clonic seizure test. Format: functional.

Consider `O=C(N/N=C/c1ccc([N+](=O)[O-])cc1)c1ccncc1` [N'-(4-NITROBENZYLIDENE)ISONICOTINOHYDRAZIDE], for which the Activity result in the data set with Mus musculus [1] and in the data set on Mus musculus [3] was “Non-toxic” in each case. Moreover, the outcome in the data set on Mus musculus [2], in the data set on Mus musculus [4], with Mus musculus [5] and in the data set on Mus musculus [6] was inactive.

For the compound `O=C(N/N=C/c1cccc(Cl)c1)c1cccnc1`, the “Ratio TD50/ED50” value in the data set filed under Mus musculus [7] is given as above 6.25. Moreover, the Activity result in the data set with Mus musculus [1] and with Mus musculus [3] was “Non-toxic” throughout. In the data set on Mus musculus [8], this compound showed a median effective dose (ED50) of 80 mg/kg. The result in the data set with Mus musculus [2], in the data set with Mus musculus [4] and with Mus musculus [6] was inactive. Moreover, the minimal effective dose came out at 300 mg/kg with Mus musculus [9] and 40 mg/kg in the data set on Mus musculus [11]. Also, the TD50 in data set [10] was above 500 mg/kg.

Regarding `Cc1ccc(C(=O)N/N=C/c2ccc(Cl)cc2)cc1`, the Activity result in the data set on Mus musculus [1] and with Mus musculus [3] was “Non-toxic” throughout. Also, the outcome in the data set on Mus musculus [2], with Mus musculus [4], with Mus musculus [5] and in the data set with Mus musculus [6] was inactive.

With `O=C1NC(=O)C(c2ccccc2)(c2ccccc2)N1` [PHENYTOIN], the Activity in the data set on Mus musculus [12] and in the data set with Mus musculus [14] was 100 mg/kg in each case. In addition, the minimal effective dose with Mus musculus [9] and in the data set on Mus musculus [13] was 30 mg/kg each time. Also, the outcome in the data set on Mus musculus [4] and with Mus musculus [6] was inactive.

Turning to `O=C(N/N=C/c1cccc(Br)c1)c1ccccc1`, the Activity entry in the data set on Mus musculus [1] and in the data set on Mus musculus [3] was “Non-toxic” throughout. The result with Mus musculus [2], with Mus musculus [4], in the data set with Mus musculus [5] and in the data set on Mus musculus [6] was inactive.

As to `O=C(N/N=C/c1cccc(Br)c1)c1cccnc1`, the “Ratio TD50/ED50” value in the data set listed under Mus musculus [7] is reported as above 11. The Activity entry in the data set on Mus musculus [1] and with Mus musculus [3] was “Non-toxic” each time. Also, in the data set on Mus musculus [8], the ED50 is 47.2 mg/kg. Further, the result in the data set on Mus musculus [2], with Mus musculus [4] and in the data set with Mus musculus [6] was inactive. Further, the results for the minimal effective dose with Mus musculus [9], in the data set with Mus musculus [11] and with Mus musculus [15] were 100 mg/kg, 35 mg/kg and 35 mg/kg, respectively. This compound displayed a TD50 in data set [10] above 520 mg/kg.

Turning to `O=C(N/N=C/c1ccccc1F)c1ccccc1`, the Activity result with Mus musculus [1] and in the data set with Mus musculus [3] was “Non-toxic” in each case. Further, the result in the data set on Mus musculus [2], in the data set with Mus musculus [4], in the data set with Mus musculus [5] and in the data set with Mus musculus [6] was inactive.

`O=C(N/N=C/c1ccc(O)cc1)c1cccnc1`: the Activity entry in the data set on Mus musculus [1] and in the data set with Mus musculus [3] was “Non-toxic” throughout. Moreover, the result in the data set with Mus musculus [2], in the data set on Mus musculus [4], with Mus musculus [5] and in the data set with Mus musculus [6] was inactive.

As for `Cc1ccc(C(=O)N/N=C/c2ccc([N+](=O)[O-])cc2)cc1`, the Activity entry in the data set with Mus musculus [1] and in the data set on Mus musculus [3] was “Non-toxic” throughout. Also, the result in the data set on Mus musculus [2], in the data set with Mus musculus [4], with Mus musculus [5] and in the data set with Mus musculus [6] was inactive.

In the case of `O=C(N/N=C/c1cccc(Br)c1)c1ccncc1`, the Activity entry in the data set with Mus musculus [1] and in the data set with Mus musculus [3] was “Non-toxic” each time. Besides, the result in the data set on Mus musculus [2], with Mus musculus [4], with Mus musculus [5] and in the data set on Mus musculus [6] was inactive.

`O=C(N/N=C/c1ccc(Cl)cc1)c1ccncc1`: the Activity with Mus musculus [12] and in the data set with Mus musculus [14] was 100 mg/kg each time. Moreover, the minimal effective dose in the data set with Mus musculus [9] and in the data set on Mus musculus [13] was 100 mg/kg in each case. Moreover, the outcome with Mus musculus [4] and in the data set with Mus musculus [6] was inactive.

As for `O=C(N/N=C/c1ccc(O)cc1)c1ccccc1`, the Activity result in the data set on Mus musculus [1] and with Mus musculus [3] was “Non-toxic” in each case. Besides, the outcome in the data set with Mus musculus [2], with Mus musculus [4], in the data set with Mus musculus [5] and with Mus musculus [6] was inactive.

With `O=C(N/N=C/c1ccccc1F)c1ccncc1`, the Activity entry in the data set on Mus musculus [1] and in the data set with Mus musculus [3] was “Non-toxic” in each case. Besides, the outcome in the data set with Mus musculus [2], in the data set on Mus musculus [4], in the data set on Mus musculus [5] and in the data set on Mus musculus [6] was inactive.

Consider `O=C(N/N=C/c1cccc(Cl)c1)c1ccncc1` [N'-(3-CHLOROBENZYLIDENE)ISONICOTINOHYDRAZIDE], for which the Activity entry with Mus musculus [1] and in the data set with Mus musculus [3] was “Non-toxic” in each case. Moreover, the outcome in the data set on Mus musculus [2], in the data set on Mus musculus [4] and in the data set with Mus musculus [6] was inactive. Also, the minimal effective dose in the data set on Mus musculus [9] was determined as 300 mg/kg.

In the case of `O=C(N/N=C/c1ccccc1[N+](=O)[O-])c1ccncc1`, the Activity entry with Mus musculus [1] and in the data set on Mus musculus [3] was “Non-toxic” each time. The result in the data set with Mus musculus [2], in the data set on Mus musculus [4], in the data set on Mus musculus [5] and in the data set on Mus musculus [6] was inactive.

On to `O=C(N/N=C/c1cccc(Cl)c1)c1ccccc1`, for which the Activity result in the data set with Mus musculus [1] and in the data set on Mus musculus [3] was “Non-toxic” throughout. Also, the outcome in the data set with Mus musculus [2], in the data set on Mus musculus [4], with Mus musculus [5] and in the data set with Mus musculus [6] was inactive.

For `O=C(N/N=C/c1ccccc1Br)c1ccncc1`, the Activity entry in the data set on Mus musculus [1] and in the data set on Mus musculus [3] was “Non-toxic” in each case. Also, the result with Mus musculus [2], with Mus musculus [4], in the data set with Mus musculus [5] and in the data set with Mus musculus [6] was inactive.

For `Cc1ccc(C(=O)N/N=C/c2cccc(Cl)c2)cc1`, the Activity result in the data set on Mus musculus [1] and in the data set with Mus musculus [3] was “Non-toxic” throughout. Moreover, the outcome with Mus musculus [4], in the data set on Mus musculus [5] and in the data set on Mus musculus [6] was inactive. In addition, in the data set on Mus musculus [13], the minimal effective dose stood at 100 mg/kg.

With `Cc1ccc(C(=O)N/N=C/c2cccc(Br)c2)cc1`, the Activity result in the data set on Mus musculus [1] and with Mus musculus [3] was “Non-toxic” each time. Further, the result in the data set on Mus musculus [2], in the data set on Mus musculus [4], in the data set on Mus musculus [5] and in the data set with Mus musculus [6] was inactive.

For `O=C(N/N=C/c1ccc(Cl)cc1)c1ccccc1`, the Activity result in the data set on Mus musculus [1] and in the data set with Mus musculus [3] was “Non-toxic” in each case. In addition, the outcome with Mus musculus [2], in the data set with Mus musculus [4], in the data set with Mus musculus [5] and in the data set with Mus musculus [6] was inactive.

As to `O=C(N/N=C/c1ccc(Cl)cc1)c1cccnc1`, the “Ratio TD50/ED50” value in the data set listed under Mus musculus [7] was above 20; in the data set listed under Rattus norvegicus [16] it was above 10. In addition, the Activity result with Mus musculus [1] and in the data set with Mus musculus [3] was “Non-toxic” each time. The 50% effective dose (ED50) amounted to 16.1 mg/kg with Mus musculus [8] and 31.4 mg/kg in the data set on Rattus norvegicus [18]. In addition, the outcome in the data set with Mus musculus [2], with Mus musculus [4] and in the data set with Mus musculus [6] was inactive. Also, the minimal effective dose in the data set with Mus musculus [9] was 100 mg/kg; with Mus musculus [11], 12.5 mg/kg; in the data set with Mus musculus [15], 12.5 mg/kg. Besides, the TD50 in data set [10] is above 325 mg/kg; in data set [17], above 320 mg/kg.

As a reminder, the ED50 is the dose at which the effect has come halfway, by size or by number of responders. Read a high ED50 as a need for a large dose. Broadly, the TD50 is the dose at which the toxic effect under study appears in half of the subjects. A high value points to harm only at a large dose.
